Source: patent US8653096B2, “Chemokine receptor antagonists and methods of use thereof” (Millennium Pharmaceuticals, Inc., priority 2001, dated 2014)

These compounds were tested against T1, RANTES/MIP-1α chemokine receptor (CCR1) in THP-1 cell membranes (Homo sapiens, UniProt P32246) (assay: Receptor binding assay: 125I-RANTES or 125I-MIP-1α binding to THP-1 cell membranes). Conditions: inhibitor concentration required for 50% inhibition of specific binding; 125I-RANTES or 125I-MIP-1α as ligand, THP-1 cell membranes; read-out: IC50.
T1 construct: Membranes were prepared from THP-1 cells (ATCC #TIB202); host or cells: THP-1 cells (membrane preparation)
T1 sequence (P32246 1-355): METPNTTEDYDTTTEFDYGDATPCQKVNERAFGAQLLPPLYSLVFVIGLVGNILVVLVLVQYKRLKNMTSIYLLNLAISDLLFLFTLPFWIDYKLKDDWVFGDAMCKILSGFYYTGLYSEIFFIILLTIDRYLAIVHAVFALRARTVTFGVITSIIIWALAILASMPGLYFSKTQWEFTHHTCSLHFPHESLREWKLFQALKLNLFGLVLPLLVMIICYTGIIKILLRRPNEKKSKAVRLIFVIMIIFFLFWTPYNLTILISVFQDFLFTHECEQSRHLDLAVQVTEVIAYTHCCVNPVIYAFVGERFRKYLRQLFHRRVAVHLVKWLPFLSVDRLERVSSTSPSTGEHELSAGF

Row | Compound | IC50 [nM]
1 | CC(C)(O)c1ccc2c(c1)C(=CCCN1CCC(O)(c3ccc(Cl)cc3)C(O)C1)c1cccnc1CO2 (centres unmarked) [Example 470, 4-(4-Chloro-phenyl)-1-{3-[7-(1-hydroxy-1-methyl-ethyl)-11H-10-oxa-1-aza-dibenzo[a,d]cyclohepten-5-ylidene]-propyl}-piperidine-3,4-diol] | < 1000
2 | 4-(3,4-Dichlorophenyl)-1-[3-(5,11-dihydro-7-methoxy[1]benzoxepino[2,3-b]pyridin-5-ylidene)propyl]piperidin-4-ol [Example 79] | < 1000
3 | 1-[3-(5,11-Dihydro-7-methoxy[1]benzoxepino[2,3-b]pyridin-5-ylidene)propyl]-4-(2-pyrimidyl)piperazine [Example 72] | < 10000
4 | CC1CN(CCC=C2c3cc(OCC(C)(C)O)ccc3OCc3ncccc32)CCC1(O)c1ccc(Cl)cc1 (centres unmarked) [Example 522, 4-(4-Chloro-phenyl)-1-{3-[7-(2-hydroxy-2-methyl-propoxy)-11H-10-oxa-1-aza-dibenzo[a,d]cyclohepten-5-ylidene]-propyl}-3-methyl-piperidin-4-ol] | < 1000
5 | OC1(c2ccc(Cl)cc2)CCN(CCC=C2c3ccccc3CCc3ccccc32)CC1 [Example 1, 4-(4-Chlorophenyl)-1-[3-(10,11-dihydro-5H-dibenzo[a,d]cycloheptene-5-ylidene)propyl]piperidin-4-ol] | < 1000
6 | Cc1cc(Cl)ccc1C1(O)CCN(CCC=C2c3cc(C(C)(C)O)ccc3OCc3ncccc32)CC1 [Example 490, 4-(4-Chloro-2-methyl-phenyl)-1-{3-[7-(1-hydroxy-1-methyl-ethyl)-11H-10-oxa-1-aza-dibenzo[a,d]cyclohepten-5-ylidene]-propyl}-piperidin-4-ol] | < 1000
7 | 1-[3-(7-Bromo-5,11-dihydro[1]benzoxepino[2,3-b]pyridin-5-ylidene)propyl]-4-(4-chlorophenyl)piperidin-4-ol [Example 162] | < 1000
8 | CCOC(=O)COCC1(C)CN(CCC=C2c3cc(C(C)(C)O)ccc3OCc3ncccc32)CCC1(O)c1ccc(Cl)cc1 (centres unmarked) [Example 485, (4-(4-Chloro-phenyl)-4-hydroxy-1-{3 [7-(1-hydroxy-1-methyl-ethyl)-11H-10-oxa-1-aza-dibenzo[a,d]cyclohepten-5-ylidene]-propyl}-3-methyl-piperidin-3-ylmethoxy)-acetic acid ethyl ester] | < 1000
9 | CC(C)(O)COc1ccc2c(c1)C(=CCCN1CCC(O)(c3ccc(Cl)cc3)CC1)c1cccnc1CO2 [Example 200, 4-(4-Chlorophenyl)-1-[3-(7-(1-(2-methyl-2-hydroxy)propyl)oxy-5,11-dihydro[1]benzoxepino[2,3-b]pyridin-5-ylidene)propyl]piperidin-4-ol] | < 1000
10 | 4-(4-Chlorophenyl)-1-[3-(5,11-dihydro-8-methoxy[1]benzoxepino[2,3-b]pyridin-5-ylidene)propyl]piperidin-4-ol [Example 114] | < 1000
11 | COC1CN(CCC=C2c3cc(C(C)(C)O)ccc3OCc3ncccc32)CCC1(OC)c1ccc(Cl)cc1 (centres unmarked) [Example 475, 2-(5-{3-[4-(4-Chloro-phenyl)-3,4-dimethoxy-piperidin-1-yl]-propylidene}-5,11-dihydro-10-oxa-1-aza-dibenzo[a,d]cyclohepten-7-yl)-propan-2-ol] | < 1000
12 | OC1(c2ccc(Cl)cc2)CCN(CCC=C2c3ccccc3C=Cc3ccccc32)CC1 [Example 21, 4-(4-Chlorophenyl)-1-[3-(5H-dibenzo[a,d]cycloheptene-5-ylidene)propyl]piperidin-4-ol] | < 1000
13 | O=C(O)CN1C(=O)c2ccccc2C(=CCCN2CCC(O)(c3ccc(Cl)cc3)CC2)c2ccccc21 [Example 17, 1-[3-(5-Carboxymethyl-6,11-dihydro-6-oxo-5H-dibenz[b,e]azepin-11-ylidene)propyl]-4-(4-chlorophenyl)-piperidin-4-ol] | < 10000
14 | Oc1ccc2c(c1)C(=CCCN1CC=C(c3ccc(Cl)cc3)CC1)c1cccnc1CO2 [Example 193] | < 1000
15 | CCN(CCC=C1c2cc(C(C)(C)O)ccc2OCc2ncccc21)CCN(CC)c1ccc(Cl)cc1 [Example 543, 2-{5-[3-({2-[(4-Chloro-phenyl)-ethyl-amino]-ethyl}-ethyl-amino)-propylidene]-5,11-dihydro-10-oxa-1-aza-dibenzo[a,d]cyclohepten-7-yl}-propan-2-ol] | < 10000
16 | CC(C)(O)c1ccc2c(c1)C(=CCCN1CCC(F)(c3ccc(Cl)cc3)C(O)C1)c1cccnc1CO2 (centres unmarked) [Example 468, 4-(4-Chloro-phenyl)-4-fluoro-1-{3-[7-(1-hydroxy-1-methyl-ethyl)-11H-10-oxa-1-aza-dibenzo[a,d]cyclohepten-5-ylidene]-propyl}-piperidin-3-ol] | < 1000

Row | Compound | IC50 [nM]
17 | CC(=O)C1(c2ccc(Cl)cc2)CCN(CCC=C2c3cc(C(C)(C)O)ccc3OCc3ncccc32)CC1 [Example 457, 1-(4-(4-Chloro-phenyl)-1-{3-[7-(1-hydroxy-1-methyl-ethyl)-11H-10-oxa-1-aza-dibenzo[a,d]cyclohepten-5-ylidene]-propyl}-piperidin-4-yl)-ethanone] | < 1000
18 | COC(=O)CC1CN(CCC=C2c3cc(C(C)(C)O)ccc3OCc3ncccc32)CCN1c1ccc(Cl)cc1 (centres unmarked) [Example 558, (1-(4-Chloro-phenyl)-4-{3-[7-(1-hydroxy-1-methyl-ethyl)-11H-10-oxa-1-aza-dibenzo[a,d]cyclohepten-5-ylidene]-propyl}-piperazin-2-yl)-acetic acid methyl ester] | < 10000
19 | CC(C)(O)c1ccc2c(c1)C(=CCCN1CCC(O)(c3ccc(Cl)cc3)CC1)c1ccccc1CO2 [Example 27, 4-(4-Chlorophenyl)-1-[3-(6,11-dihydro-2-(1-hydroxy-1-methyl)ethyldibenz[b,e]oxepin-11-ylidene)propyl]piperidin-4-ol] | < 1000
20 | CC(C)(O)c1ccc2c(c1)C(=CCCN1CC[C@](O)(c3ccc(Cl)cc3)C(C)(C)C1)c1cccnc1CO2 [Example 502, S-4-(4-Chloro-phenyl)-1-{3-[7-(1-hydroxy-1-methyl-ethyl)-11H-10-oxa-1-aza-dibenzo[a,d]cyclohepten-5-ylidene]-propyl}-3,3-dimethyl-piperidin-4-ol] | < 1000
21 | CCC(=O)NC1CN(CCC=C2c3cc(C(C)(C)O)ccc3OCc3ncccc32)CCC1(O)c1ccc(Cl)cc1 (centres unmarked) [Example 478, N-[4-(4-Chloro-phenyl)-4-hydroxy-1-{3-[7-(hydroxyl-1-methyl-ethyl)-11H-10-oxa-1-aza-dibenzo[a,d]cyclohepten-5-ylidene]-propyl}-piperidin-3-yl)-propionamide] | < 10000
22 | 4-(4-Chlorophenyl)-1-[3-(5,11-dihydro-7-methylaminocarbonylmethyloxy[1]benzoxepino[2,3-b]pyridin-5-ylidene)propyl]piperidin-4-ol [Example 182] | < 1000
23 | 4-(4-Chlorophenyl)-1-[3-(5,11-dihydro-7-(2-propoxy)carbonyl-[1]benzoxepino[2,3-b]pyridin-5-ylidene) propyl]piperidine-4-ol [Example 428] | < 1000
24 | COc1ccc2c(c1)C(=CCCN1CCN(S(=O)(=O)c3ccc(C)cc3)CC1)c1cccnc1CO2 [Example 89, 1-[3-(5,11-Dihydro-7-methoxy[1]benzoxepino[2,3-b]pyridin-5-ylidene)propyl]-4-(p-tosyl)piperazine] | > 10000
25 | 8-[3-(5,11-Dihydro-7-methoxy[1]benzoxepino[2,3-b]pyridin-5-ylidene)propyl]-1-phenyl-1,3,8-triazaspiro[4,5]decan-4-one [Example 69] | < 1000
26 | CC1(C)CN(CCC=C2c3cc(O)ccc3OCc3ncccc32)CCC1(O)c1ccc(Cl)cc1 (centres unmarked) [Example 509, 5-{3-[4-(4-Chloro-phenyl)-4-hydroxy-3,3-dimethyl-piperidin-1-yl]-propylidene}-5,11-dihydro-10-oxa-1-aza-dibenzo[a,d]cyclohepten-7-ol] | < 1000
27 | COC1(c2ccc(Cl)cc2)CCN(CCC=C2c3cc(C(C)(C)O)ccc3OCc3ncccc32)CC1 [Example 494, 2-(5-{3-[4-(4-Chloro-phenyl)-4-methoxy-piperidin-1-yl]-propylidene}-5,11-dihydro-10-oxa-1-aza-dibenzo[a,d]cyclohepten-7-yl)-propan-2-ol] | < 1000
28 | CC(C)(O)c1ccc2c(c1)C(=CCCN1CCC(N(Cc3ccc(Cl)cc3)C(=O)NC3CCCCC3)C1)c1cccnc1CO2 (centres unmarked) [Example 568, 1-(4-Chloro-benzyl)-3-cyclohexyl-1-(1-{3-[7-(1-hydroxy-1-methyl-ethyl)-11H-10-oxa-1-aza-dibenzo[a,d]cyclohepten-5-ylidene]-propyl}-pyrrolidin-3-yl)-urea] | < 1000
29 | 4-(4-Chlorophenyl)-1-[3-(5,11-dihydro-7-dimethylaminocarbonylmethyloxy[1]benzoxepino[2,3-b]pyridin-5-ylidene)propyl]piperidin-4-ol [Example 134] | < 1000
30 | CC(C)(O)c1ccc2c(c1)C(=CCCN1CCC(OCc3ccc(Cl)cc3)C1)c1cccnc1CO2 (centres unmarked) [Example 549, 2-(5-{3-[3-(4-Chloro-benzyloxy)-pyrrolidin-1-yl]-propylidene}-5,11-dihydro-10-oxa-1-aza-dibenzo[a,d]cyclohepten-7-yl)-propan-2-ol] | < 1000
31 | 4-(3,5-dichlorophenyl)-1-[3-(5,11-dihydro-7-methoxy[1]benzoxepino[2,3-b]pyridin-5-ylidene)propyl]piperidin-4-ol [Example 146] | > 10000
32 | 4-(4-Chlorophenyl)-1-[3-(7-(2-furyl)-5,11-dihydro[1]benzoxepino[2,3-b]pyridin-5-ylidene)propyl]piperidin-4-ol [Example 292] | < 1000
